Data from patent US9969761B2, “Stabilisation of radiopharmaceutical precursors” (GE HEALTHCARE LIMITED, priority 2004, dated 2018).
Several values for one entry are separate records, joined by “and”; a condition that tells them apart may be missing. Equal entries are not always repeated.

Legend:
[1] = Radiolabelling with 18F- in a glassy carbon reactor after storage (pFDG RCP), Examples 1 and 2; format: physicochemical; conditions: storage time 0 weeks, MT 20 mg in 1.6 ml acetonitrile
Method: (§1) Filled and capped units are kept in storage at 25° C. and 50° C. in thermally controlled cabinets for set periods of time at which “pull points” a vial was removed from storage and subjected to the testing outlined below.
Radioactive methods (hot) performed: Radiolabelling with ^18F^− in a glassy carbon reactor (all pull points). Each dry sample of mannose triflate (20 mg) is dissolved in dry acetonitrile (1.6 ml). For the mannose triflate stored in acetonitrile, an aliquot (3.3 ml) was removed and diluted to 4.0 ml with acetonitrile and 1.6 ml of this solution was used in the radiolabelling test. For the samples taken after 2 weeks storage at 50° C., a 1.6 ml sample of the mannose triflate solution was used directly without further dilution. In all cases, the radiolabelling was performed after drying an ^18F solution of Kryptofix 2.2.2 (19.4 mg), potassium carbonate (41.0 mg), acetonitrile (0.32 ml) and water (0.04 ml) for 4 minutes at 80° C. before adding the test solution of mannose triflate in acetonitrile. The labelling reaction was carried out at 80° C. for 4 minutes in a glassy carbon reactor. […]
Using similar method to Example 1, the stability of mannose triflate in acetonitrile with water at level of approximately 725, 1450, and 2500 ppm was evaluated. […]

[2] = Purity by HPLC-UV after storage; format: physicochemical; conditions: dry powder; 2 weeks storage at 50° C.
Method: as §1
(§2) Non-radioactive methods (cold) performed: • Appearance/organoleptic test, all pull points • Purity by HPLC-UV, all pull points • ^19F-NMR, all pull points • Water content analysis, at time zero.
HPLC Method: octadecylsilyl silica gel (5 μm) column (Hichrom Nucleosil 100-5C18), temperature 25° C.; injection volume 20 μl; mobile phase of water: acetonitrile gradient, 1 ml/min. Detection by spectrophotometer at 220 nm.
HPLC-UV traces for the solid mannose triflate control experiment and the acetonitrile solution of mannose triflate are shown in FIGS. 1 and 2 respectively. Mannose triflate elutes at 32.5 minutes.

[3] = Appearance/organoleptic test after storage; format: physicochemical; conditions: dry powder; 2 weeks storage at 50° C.
Method: as §1, §2

[4] = IR of stored dry powder; format: physicochemical; conditions: 2 weeks storage at 50° C.
[5] = Comparative example: radiolabelling of stored dry powder mannose triflate, RCP by ITLC; format: physicochemical; conditions: for % RCP: dry powder
Method: Dry powder mannose triflate was stored in vials at different temperatures and for different time periods.
A solution of potassium carbonate (41 mg of potassium carbonate in 40 μl water) was added to a glassy carbon reactor and then a solution of kryptofix 222 (19.4 mg in 320 μl) was added separately. Then a solution of 18-fluoride in water (0.05 ml) was added and the solution dried by heating to 80° C. for 4 mins with a flow of dry nitrogen (at 0.3 liters/min). A solution of 1,3,4,6-tetra-O-acetyl-2-O-trifluoromethanesulfonyl-β-D-mannopyranose (20 mg in 1.6 ml dry acetonitrile) was then added and the reaction heated for a further 4 minutes at 80° C. The reaction was then cooled to 50° C. and a sample removed for analysis by ITLC (Instant thin layer chromatography) on TLC aluminium sheets silica gel 60 F254 eluting with 95% acetonitrile, 5% water. The radiochemical purity was calculated from the ratio of 1,3,4,6-tetra-O-acetyl-2-fluoro-β-D-mannopyranose to the total of the sugar and free fluoride (the sole two components from the reaction).

[6] = dry powder at 5° C.; cited from earlier work

pFDG RCP % ([1]; listed as Control (N2)): 82% and 93%
pFDG RCP % ([1]; listed as Control (air)): 87% and 86%
HPLC-UV detection of mannose triflate [2]: no mannose triflate was detected
IR identity [4]: no longer mannose triflate
% RCP ([5]; 0 days under air, listed as Dry powder mannose triflate): 87% and 86%
% RCP ([5]; 1 day @ room temperature under dry N2, listed as Dry powder mannose triflate): 82% and 93%
% RCP ([5]; 5 days @ 50° C. under air): 5%
% RCP ([5]; 127 days @ 25° C. under air): 1%
stability of dry powder (conclusion from RCP data) ([5]; room temperature, much worse at 50° C.): significant instability
Compound: CC(=O)OC[C@H]1O[C@@H](OC(C)=O)[C@@H](OS(=O)(=O)C(F)(F)F)[C@@H](OC(C)=O)[C@@H]1OC(C)=O [mannose triflate, 1,3,4,6-tetra-O-acetyl-2-O-trifluoromethanesulfonyl-β-D-mannopyranose]
Appearance/organoleptic [3]: black and smelled strongly of acetic acid
shelf life [6]: 6 months
